Reference: patent publication US20040214796A1, “Novel therapeutic application of enoxaparin” (AVENTIS PHARMA S.A., priority 2000, published 2004)
Marks after values point to notes of the source that are not given here.

Experiments:
cerebral ischemia [1] = assay: Permanent focal cerebral ischemia in rats (left middle cerebral artery permanently cauterized, no carotid occlusion), Study 4; assay type: in vivo, rat (male Sprague Dawley); conditions: Study 4 (permanent occlusion), 2 × 1.5 mg/kg iv
cerebral ischemia [2] = assay: Transient focal cerebral ischemia in rats (2 h clamp of left middle cerebral artery plus carotid ligation, then reperfusion), Studies 1-3; assay type: in vivo, rat (male Sprague Dawley); conditions: for reduction of the cortical lesion: vs control group; for CORTICAL LESION: mean ± S.E.M.
Procedure: Male Sprague Dawley rats (230-250 g Iffa Credo) are fed and watered ad libitum and kept in a light-dark cycle of 12 hours. Surgery was carried out under halothane (1.4% in a mixture of 70% N2O/30% O2). During anesthesia, normothermia is maintained by placing the rat under a thermostated cover. The left common carotid artery is isolated and a loose ligature is put in place. The left middle cerebral artery is exposed via a subtemporal craniotomy and a microclamp is placed in the proximal region of the artery, immediately followed by the ligation of the carotid artery. Two hours later, the animals are reanesthetized and the cerebral circulation is reestablished by removing the clamp from the middle cerebral artery and the ligature from the carotid artery. The rats are then placed in their cage in a thermostated room at 26-28° C. 48 hours after the surgery, a neurological examination is carried out for each rat by an examiner unaware of the treatment. The neurological scale used is described in Table 1. [table] After the neurological examination, the rats are humanely killed and their brains removed. 1.5 mm thick serial sections are prepared and stained with 2,3,5-triphenyltetrazolium chloride (TTC) at 2%. After 24 hours of post-fixing in a 10% formaldehyde solution, the lesion areas (cerebral infarct) are measured at the cortical and striatal levels; the volumes are calculated by integrating the lesioned surface areas. The values are expressed in mm^3 (mean ±S.E.M). Statistical analysis was carried out by a Mann-Whitney test or by a Kruskal-Wallis test for non-parametric variance analysis followed by a Dunn test for comparison between groups (*:p<0.05, **:p<0.01, ***:p<0.001 vs control group). In Study 1, enoxaparin is administered to 12 rats at 1.5 mg/kg iv, 2 hours and 24 hours after the onset of the ischemia. A control group of 10 rats receives only the vehicle (physiological solution of sodium chloride at 0.9%) following the same protocol. In Study 2, the therapeutic window of opportunity for enoxaparin is explored. The treatment starts 5 hours after the ischemia followed by a second administration at 24 hours. This study consists in an enoxaparin dose-effect on the cerebral lesions. The doses studied are 0.5:1 and 1.5 mg/kg iv (9-10 rats per group). A control group of 11 rats receives only the vehicle (physiological solution of sodium chloride at 0.9%). In Study 3, enoxaparin is administered to 10 rats at 1.5 mg/kg iv, 5 and 24 hours after the onset of the ischemia. The control group of 13 rats receives only the vehicle (physiological solution of sodium chloride at 0.9%).

Substance: Enoxaparin
- reduction of the cortical lesion (cerebral ischemia [1]; 5 h and 24 h, vs control group): 49%
- CORTICAL LESION (cerebral ischemia [1]; 5 h and 24 h after onset of ischemia, mean ± S.E.M.): 71 ± 13* mm^3
- reduction of the cortical lesion (cerebral ischemia [2]; Study 1, 2 × 1.5 mg/kg iv, 2 h and 24 h): 30%
- CORTICAL LESION (cerebral ischemia [2]; Study 1, 2 × 1.5 mg/kg iv, 2 h and 24 h after onset of ischemia, measured 48 h after surgery): 131 ± 13* mm^3
- CORTICAL LESION (cerebral ischemia [2]; Study 2, 2 × 0.5 mg/kg iv, 5 h and 24 h after ischemia): 164 ± 15 mm^3
- reduction of the cortical lesion (cerebral ischemia [2]; Study 2, 2×1 mg/kg iv, 5 h and 24 h): 30%
- CORTICAL LESION (cerebral ischemia [2]; Study 2, 2 × 1 mg/kg iv, 5 h and 24 h after ischemia): 142 ± 24* mm^3
- reduction of the cortical lesion (cerebral ischemia [2]; Study 2, 2×1.5 mg/kg iv, 5 h and 24 h): 36%
- CORTICAL LESION (cerebral ischemia [2]; Study 2, 2 × 1.5 mg/kg iv, 5 h and 24 h after ischemia): 129 ± 17* mm^3
- reduction of the cortical lesion (cerebral ischemia [2]; Study 3, 2 × 1.5 mg/kg iv, 5 h and 24 h): 34%
- CORTICAL LESION (cerebral ischemia [2]; Study 3, 2 × 1.5 mg/kg iv, 5 h and 24 h after onset of ischemia): 129 ± 16** mm^3
- bleeding (cerebral ischemia [2]; during Studies 1-4, 0.5-1.5 mg/kg iv, two administrations): No problem of bleeding was encountered
